Legend:
[1] = tested on: bone cancer pain in rats (Walker rat breast cancer cells, tibia implant model); experiment: Radiant heat pain response (pain threshold) in rat tibia implant bone cancer pain model; format: in vivo; settings: for Radiant heat pain threshold compared with the model group: from 7 days after administration, p<0.05
Protocol: After two SD female rats were intraperitoneally injected with 0.5 mL cancer cells (4×10^4 cells/μL), ascites was collected on the 7th day, and the cells are rinsed 3 times with sterile 0.01 mol/L PBS to adjust to the concentration of 4×10^3 cells/μL for use. 60 SD rats were randomly selected, and after anesthesia, a small 1 cm incision was made in the upper tibial skin. A 10 mL syringe needle was used to puncture and perforate, then a 10 μL syringe was inserted into the bone marrow cavity, and 3 μL cell suspension containing 3×10^3 Walker rat breast cancer cells was slowly injected. The pinhole was sealed with bone wax, and the skin was sutured. After surgery, the rats were placed on a 37° C. hot plate for rewarming. After recovery, rats were returned to the cage for further breeding, to obtain the model group. In addition, 8 SD rats were randomly selected, and an equal volume of PBS solution was injected into the marrow cavity of the left upper tibia. The rest of the operations were the same as the model group, to obtain the sham operation group. Radiation thermal pain response: the rat was placed on a glass plate, and the affected side of the foot was irradiated with a heat radiator. The plantar side of each rat would be tested 3 times at an interval of 5 min. The response time from exposure to paw withdrawal was recorded, and the time to retract the paw was the pain threshold. […] The rats that had been successfully modeled were randomly divided into groups, eight rats for each group, that included high-dose chlorogenic acid group (80 mg/kg), middle-dose chlorogenic acid group (40 mg/kg), low-dose chlorogenic acid group (20 mg/kg), model negative group (N.S normal saline), and sham operation group (N.S normal saline). The rats were intraperitoneally injected with drugs for 15 days in a volume of 0.2 mL/10 g, once a day; the model-negative group and the sham operation group were given the same volume of normal saline. From the second day after administration, the mechanical pain hypersensitivity and radiation thermal pain were investigated before each administration, and the paw withdrawal threshold and the pain threshold were recorded.

[2] = tested on: DA; experiment: DA content in brain tissue by HPLC-EC in bone cancer pain rats; format: in vivo, rat; settings: for DA content in the brain tissue: after 15 days of administration
Protocol: 60 SD rats were randomly selected, and after anesthesia, a small 1 cm incision was made in the upper tibial skin. A 10 mL syringe needle was used to puncture and perforate, then a 10 μL syringe was inserted into the bone marrow cavity, and 3 μL cell suspension containing […] Walker rat breast cancer cells was slowly injected. The pinhole was sealed with bone wax, and the skin was sutured. After surgery, the rats were placed on a 37° C. hot plate for rewarming. After recovery, rats were returned to the cage for further breeding, to obtain the model group. In addition, 8 SD rats were randomly selected, and an equal volume of PBS solution was injected into the marrow cavity of the left upper tibia. The rest of the operations were the same as the model group, to obtain the sham operation group. The rats that had been successfully modeled were randomly divided into groups, eight rats for each group, that included high-dose chlorogenic acid group (80 mg/kg), middle-dose chlorogenic acid group (40 mg/kg), low-dose chlorogenic acid group (20 mg/kg), model negative group (N.S normal saline), and sham operation group (N.S normal saline). The rats were intraperitoneally injected with drugs for 15 days in a volume of 0.2 mL/10 g, once a day; the model-negative group and the sham operation group were given the same volume of normal saline. After the rats were sacrificed, the hypothalamus was quickly separated, homogenized in an ice bath with perchloric acid, and centrifuged. The supernatant was collected, and the contents of NE, DA, and 5-HT were determined by HPLC-EC method (Hou […], Wang Na, et al, Effects of progesterone on morphine-induced conditioned place preference and levels of monoamine transmitters in rat brain. Chinese Journal of Pharmacology, 2006, 22(8), 980-983).

Compound: O=C(/C=C/c1ccc(O)c(O)c1)O[C@@H]1C[C@](O)(C(=O)O)C[C@@H](O)[C@H]1O [Chlorogenic acid]
- Pain threshold ([1]; 20 mg/kg ip once a day, 2 d): 3.86 s
- Pain threshold ([1]; 20 mg/kg ip once a day, 3 d): 4.11 s
- Pain threshold ([1]; 20 mg/kg ip once a day, 4 d): 3.93 s
- Pain threshold ([1]; 20 mg/kg ip once a day, 5 d): 9.53 s
- Pain threshold ([1]; 20 mg/kg ip once a day, 6 d): 16.66 s
- Pain threshold ([1]; 20 mg/kg ip once a day, 7 d): 17.89 s
- Pain threshold ([1]; 20 mg/kg ip once a day, 8 d): 16.72 s
- Pain threshold ([1]; 20 mg/kg ip once a day, 9 d): 15.45 s
- Pain threshold ([1]; 20 mg/kg ip once a day, 10 d): 16.74 s
- Pain threshold ([1]; 20 mg/kg ip once a day, 11 d): 15.52 s
- Pain threshold ([1]; 20 mg/kg ip once a day, 12 d): 15.97 s
- Pain threshold ([1]; 20 mg/kg ip once a day, 13 d): 16.35 s
- Pain threshold ([1]; 20 mg/kg ip once a day, 14 d): 16.22 s
- Pain threshold ([1]; 20 mg/kg ip once a day, 15 d): 16.75 s
- Radiant heat pain threshold compared with the model group ([1]; 20 mg/kg): significant difference
- Pain threshold ([1]; 40 mg/kg ip once a day, 2 d): 3.62 s
- Pain threshold ([1]; 40 mg/kg ip once a day, 3 d): 3.52 s
- Pain threshold ([1]; 40 mg/kg ip once a day, 4 d): 6.36 s
- Pain threshold ([1]; 40 mg/kg ip once a day, 5 d): 12.52 s
- Pain threshold ([1]; 40 mg/kg ip once a day, 6 d): 20.53 s
- Pain threshold ([1]; 40 mg/kg ip once a day, 7 d): 20.49 s
- Pain threshold ([1]; 40 mg/kg ip once a day, 8 d): 19.83 s
- Pain threshold ([1]; 40 mg/kg ip once a day, 9 d): 21.21 s
- Pain threshold ([1]; 40 mg/kg ip once a day, 10 d): 24.32 s
- Pain threshold ([1]; 40 mg/kg ip once a day, 11 d): 20.59 s
- Pain threshold ([1]; 40 mg/kg ip once a day, 12 d): 21.41 s
- Pain threshold ([1]; 40 mg/kg ip once a day, 13 d): 22.39 s
- Pain threshold ([1]; 40 mg/kg ip once a day, 14 d): 21.74 s
- Pain threshold ([1]; 40 mg/kg ip once a day, 15 d): 20.88 s
- Radiant heat pain threshold compared with the model group ([1]; 40 mg/kg): significant difference
- Pain threshold ([1]; 80 mg/kg ip once a day, 2 d): 4.17 s
- Pain threshold ([1]; 80 mg/kg ip once a day, 3 d): 4.24 s
- Pain threshold ([1]; 80 mg/kg ip once a day, 4 d): 4.09 s
- Pain threshold ([1]; 80 mg/kg ip once a day, 5 d): 5.52 s
- Pain threshold ([1]; 80 mg/kg ip once a day, 6 d): 8.15 s
- Pain threshold ([1]; 80 mg/kg ip once a day, 7 d): 8.22 s
- Pain threshold ([1]; 80 mg/kg ip once a day, 8 d): 7.98 s
- Pain threshold ([1]; 80 mg/kg ip once a day, 9 d): 7.59 s
- Pain threshold ([1]; 80 mg/kg ip once a day, 10 d): 8.03 s
- Pain threshold ([1]; 80 mg/kg ip once a day, 11 d): 8.05 s
- Pain threshold ([1]; 80 mg/kg ip once a day, 12 d): 7.76 s
- Pain threshold ([1]; 80 mg/kg ip once a day, 13 d): 7.98 s
- Pain threshold ([1]; 80 mg/kg ip once a day, 14 d): 8.52 s
- Pain threshold ([1]; 80 mg/kg ip once a day, 15 d): 8.38 s
- Threshold compared with the model group (radiant heat pain section) ([1]; 80 mg/kg, p>0.05): not statistically significant
- DA content in the brain tissue ([2]; 20 mg/kg ip once a day): 1.38 ± 0.21 nmol/g
- DA content in brain tissue compared with the model-negative group ([2]; 20 mg/kg, p<0.05): the difference was significant
- DA content in the brain tissue ([2]; 40 mg/kg ip once a day): 1.46 ± 0.08 nmol/g
- DA content in brain tissue compared with the model-negative group ([2]; 40 mg/kg, p<0.05): the difference was significant
- DA content in the brain tissue ([2]; 80 mg/kg ip once a day): 1.15 ± 0.12 nmol/g
- DA content in brain tissue compared with the model-negative group ([2]; 80 mg/kg, p>0.05): no significant difference

— patent US20250205186A1, “USE OF CHLOROGENIC ACID IN PREPARING MEDICINE OR PHARMACEUTICAL COMPOSITION FOR PREVENTING OR TREATING PAIN” (SICHUAN JIUZHANG BIOLOGICAL SCIENCE AND TECHNOLOGY CO., LTD., priority 2019, published 2025)
